The results in this text go back to patent publication US6613786B2, “Thiophenyl triazol-3-one derivatives as smooth muscle relaxants” (Bristol-Myers Squibb Company, priority 2001, dated 2003).

Molecules are shown by their SMILES.

The experiment deals with rat bladder strip. Briefly: in vitro rat bladder strip model: inhibition of 10 μM carbachol induced contraction. Particulars: 1 h; test compound at 3 μM, one hour incubation; 10 μM carbachol induced contraction of rat bladder strip; percent inhibition over controls, normalized for vehicle effects. The procedure: The ability of the compounds of the present invention to relax smooth muscle tissue was assessed by their ability to inhibit carbachol induced contractions in mammalian smooth muscle tissue. More specifically, the compounds of the present invention were screened in an in vitro rat bladder strip model to estimate their inhibitory effects on 10 μM carbachol induced contraction of the rat bladder strip according to the following experimental protocol.
1. Bladder Strip Tissue Preparation
Male rats were sacrificed by decapitation, the bladder removed and cleaned of connective tissue. Strips of bladder were then cut from the bladder body and placed in organ baths, suspended between a fixed hook and a force transducer, containing oxygenated physiological buffer maintained at 37° C.
The bladder strips were primed by stimulating them with 10 μM carbachol to evoke a contraction. The strips were then washed multiple times with fresh physiological buffer and allowed to fully relax. Following a period of recovery, the strips were again challenged with 10 μM carbachol to produce a contraction; this contractile response served as control response. The strips were again washed multiple times and allowed to fully relax (45 minutes). Test compound (3 μM) or vehicle was then added to each organ bath. Following a one hour incubation period, the strips were again stimulated with 10 μM carbachol and the contractile response measured.
The percent inhibition of the carbachol response by the test compounds was calculated by comparing control and post-compound carbachol responses normalized for vehicle effects. The percentage inhibition for each compound at 3 μM concentration is provided below in Table 1.
One may read the inhibition as how much of the control response was suppressed. Compound `O=c1[nH]c(-c2ccc(Br)s2)nn1-c1cc(Cl)ccc1O` [Example 1, 5-(5-Bromothiophen-2-yl)-2-(5-chloro-2-hydroxyphenyl)-2,4-dihydro-[1,2,4]triazol-3-one] yielded an inhibition at 3 µM of 35 to 50%.

In turn, `O=c1[nH]c(-c2ccc(Cl)s2)nn1-c1cc(Cl)ccc1O` [Example 2, 2-(5-Chloro-2-hydroxyphenyl)-5-(5-chlorothiophen-2-yl)-2,4-dihydro-[1,2,4]triazol-3-one] gave an inhibition at 3 µM of 35 to 50%. The figure for `O=c1[nH]c(-c2ccc(I)s2)nn1-c1cc(Cl)ccc1O` [Example 3, 2-(5-Chloro-2-hydroxyphenyl)-5-(5-iodothiophen-2-yl)-2,4-dihydro-[1,2,4]triazol-3-one] is 35 to 50%; for `O=c1[nH]c(-c2cc(Br)cs2)nn1-c1cc(Cl)ccc1O` [Example 4, 5-(4-Bromothiophen-2-yl)-2-(5-chloro-2-hydroxyphenyl)-2,4-dihydro-[1,2,4]triazol-3-one] it is 35 to 50%. Consider `O=c1[nH]c(-c2cc(Cl)cs2)nn1-c1cc(Cl)ccc1O` [Example 5, 5-(4-Chlorothiophen-2-yl)-2-(5-chloro-2-hydroxyphenyl)-2,4-dihydro-[1,2,4]triazol-3-one], for which the inhibition at 3 µM fell in the range of 35 to 50%. Under `O=c1[nH]c(-c2sccc2Br)nn1-c1cc(Cl)ccc1O` [Example 6, 5-(3-Bromothiophen-2-yl)-2-(5-chloro-2-hydroxyphenyl)-2,4-dihydro-[1,2,4]triazol-3-one] stands 35 to 50%; under `O=c1[nH]c(-c2sccc2Cl)nn1-c1cc(Cl)ccc1O` [Example 7, 2-(5-Chloro-2-hydroxyphenyl)-5-(3-chlorothiophen-2-yl)-2,4-dihydro-[1,2,4]triazol-3-one], 35 to 50%; under `O=c1[nH]c(-c2sccc2I)nn1-c1cc(Cl)ccc1O` [Example 8, 2-(5-Chloro-2-hydroxyphenyl)-5-(3-iodothiophen-2-yl)-2,4-dihydro-[1,2,4]triazol-3-one], 20 to 35%. Under `O=c1[nH]c(-c2cc(Br)c(Br)s2)nn1-c1cc(Cl)ccc1O` [Example 9, 2-(5-Chloro-2-hydroxyphenyl)-5-(4,5-dibromothiophen-2-yl)-2,4-dihydro-[1,2,4]triazol-3-one] stands 5 to 20%; under `O=c1[nH]c(-c2cc(Cl)c(Cl)s2)nn1-c1cc(Cl)ccc1O` [Example 10, 2-(5-Chloro-2-hydroxyphenyl)-5-(4,5-dichlorothiophen-2-yl)-2,4-dihydro-[1,2,4]triazol-3-one], 20 to 35%; under `O=c1[nH]c(-c2cc(Br)c(Cl)s2)nn1-c1cc(Cl)ccc1O` [Example 11, 5-(4-Bromo-5-chlorothiophen-2-yl)-2-(5-chloro-2-hydroxyphenyl)-2,4-dihydro-[1,2,4]triazol-3-one], 20 to 35%. Turning to `O=c1[nH]c(-c2scc(Br)c2Br)nn1-c1cc(Cl)ccc1O` [Example 12, 2-(5-Chloro-2-hydroxyphenyl)-5-(3,4-dibromothiophen-2-yl)-2,4-dihydro-[1,2,4]triazol-3-one], the inhibition at 3 µM was in the range of 20 to 35%. The compound `O=c1[nH]c(-c2scc(Cl)c2Cl)nn1-c1cc(Cl)ccc1O` [Example 13, 2-(5-Chloro-2-hydroxyphenyl)-5-(3,4-dichlorothiophen-2-yl)-2,4-dihydro-[1,2,4]triazol-3-one] had an inhibition at 3 µM of 35 to 50%. Take `O=c1[nH]c(-c2sc(Br)cc2Br)nn1-c1cc(Cl)ccc1O` [Example 14, 2-(5-Chloro-2-hydroxyphenyl)-5-(3,5-dibromothiophen-2-yl)-2,4-dihydro-[1,2,4]triazol-3-one]: the inhibition at 3 µM was in the range of 35 to 50%.

In turn, `O=c1[nH]c(-c2sc(Br)c(Br)c2Br)nn1-c1cc(Cl)ccc1O` [Example 15, 2-(5-Chloro-2-hydroxyphenyl)-5-(3,4,5-tribromothiophen-2-yl)-2,4-dihydro-[1,2,4]triazol-3-one] showed an inhibition at 3 µM of 5 to 20%.

The compound `O=c1[nH]c(-c2sc(Cl)c(Cl)c2Cl)nn1-c1cc(Cl)ccc1O` [Example 16, 2-(5-Chloro-2-hydroxyphenyl)-5-(3,4,5-trichlorothiophen-2-yl)-2,4-dihydro-[1,2,4]triazol-3-one] registered an inhibition at 3 µM of 20 to 35%. Under `Cc1sc(-c2nn(-c3cc(Cl)ccc3O)c(=O)[nH]2)cc1Br` [Example 17, 5-(4-Bromo-5-methylthiophen-2-yl)-2-(5-chloro-2-hydroxyphenyl)-2,4-dihydro-[1,2,4]triazol-3-one] stands 20 to 35%. In the case of `O=c1[nH]c(-c2cc(Br)sc2Br)nn1-c1cc(Cl)ccc1O` [Example 18, 2-(5-Chloro-2-hydroxyphenyl)-5-(2,5-dibromothiophen-3-yl)-2,4-dihydro-[1,2,4]triazol-3-one], the inhibition at 3 µM lay within 20 to 35%.

With `O=c1[nH]c(-c2cc(Cl)sc2Cl)nn1-c1cc(Cl)ccc1O` [Example 19, 2-(5-Chloro-2-hydroxyphenyl)-5-(2,5-dichlorothiophen-3-yl)-2,4-dihydro-[1,2,4]triazol-3-one], the inhibition at 3 µM is 35 to 50%.

`C=CCc1cc(Cl)cc(-n2nc(-c3ccc(Br)s3)[nH]c2=O)c1O` [Example 20, 2-(3-Allyl-5-chloro-2-hydroxyphenyl)-5-(5-bromothiophen-2-yl)-2,4-dihydro-[1,2,4]triazol-3-one]: the inhibition at 3 µM fell in the range of 20 to 35%. Take `O=c1[nH]c(-c2ccc(Br)s2)nn1-c1cc(Cl)cc(Br)c1O` [Example 21, 2-(3-Bromo-5-chloro-2-hydroxyphenyl)-5-(5-bromothiophen-2-yl)-2,4-dihydro-[1,2,4]triazol-3-one]: the inhibition at 3 µM fell in the range of 20 to 35%.

For the compound `Cc1cc(Cl)cc(-n2nc(-c3ccc(Br)s3)[nH]c2=O)c1O` [Example 22, 5-(5-Bromothiophen-2-yl)-2-(5-chloro-2-hydroxy-3-methylphenyl)-2,4-dihydro-[1,2,4]triazol-3-one], the inhibition at 3 µM lay in the range of 20 to 35%. `O=c1[nH]c(-c2ccc(Br)s2)nn1-c1cc(Cl)cc(Cl)c1O` [Example 23, 5-(5-Bromothiophen-2-yl)-2-(3,5-dichloro-2-hydroxyphenyl)-2,4-dihydro-[1,2,4]triazol-3-one] registered an inhibition at 3 µM of 20 to 35%. `Cc1cc(O)c(-n2nc(-c3ccc(Br)s3)[nH]c2=O)cc1Cl` [Example 24, 5-(5-Bromothiophen-2-yl)-2-(5-chloro-2-hydroxy-4-methylphenyl)-2,4-dihydro-[1,2,4]triazol-3-one] had an inhibition at 3 µM of 20 to 35%.

On to `O=c1[nH]c(-c2ccc(Br)s2)nn1-c1cc(Cl)c(Br)cc1O` [Example 25, 2-(4-Bromo-5-chloro-2-hydroxyphenyl)-5-(5-bromothiophen-2-yl)-2,4-dihydro-[1,2,4]triazol-3-one], for which the inhibition at 3 µM lay within 20 to 35%. Under `O=c1[nH]c(-c2ccc(Br)s2)nn1-c1cc(C(F)(F)F)ccc1O` [Example 26, 5-(5-Bromothiophen-2-yl)-2-(2-hydroxy-5-trifluoromethylphenyl)-2,4-dihydro-[1,2,4]triazol-3-one] stands 35 to 50%; under `O=c1[nH]c(-c2ccc(Br)s2)nn1-c1cc(Br)ccc1O` [Example 27, 2-(5-Bromo-2-hydroxyphenyl)-5-(5-bromothiophen-2-yl)-2,4-dihydro-[1,2,4]triazol-3-one], 35 to 50%. The compound `O=c1[nH]c(-c2ccc(Br)s2)nn1-c1cc(F)ccc1O` [Example 28, 5-(5-Bromothiophen-2-yl)-2-(5-fluoro-2-hydroxyphenyl)-2,4-dihydro-[1,2,4]triazol-3-one] yielded an inhibition at 3 µM of 20 to 35%. In turn, `CC=Cc1cc(Cl)cc(-n2nc(-c3ccc(Br)s3)[nH]c2=O)c1O` [Example 29, 5-(5-Bromothiophen-2-yl)-2-(5-chloro-2-hydroxy-3-(prop-1-en-1-yl)phenyl)-2,4-dihydro-[1,2,4]triazol-3-one] registered an inhibition at 3 µM of 20 to 35%.

In turn, `CCCc1cc(Cl)cc(-n2nc(-c3cccs3)[nH]c2=O)c1O` [Example 30, 2-(5-Chloro-2-hydroxy-3-propylphenyl)-5-(thiophen-2-yl)-2,4-dihydro-[1,2,4]triazol-3-one] showed an inhibition at 3 µM of 20 to 35%. The figure for `O=c1[nH]c(-c2ccc(Cl)s2)nn1-c1cc(Br)ccc1O` [Example 31, 2-(5-Bromo-2-hydroxyphenyl)-5-(5-chlorothiophen-2-yl)-2,4-dihydro-[1,2,4]triazol-3-one] is 20 to 35%; for `O=c1[nH]c(-c2ccc(Cl)s2)nn1-c1cc(F)ccc1O` [Example 32, 5-(5-Chlorothiophen-2-yl)-2-(5-fluoro-2-hydroxyphenyl)-2,4-dihydro-[1,2,4]triazol-3-one] it is 35 to 50%.
